Experimental data as given in patent publication US6866861B1, “Method and composition for enhancing milk component concentrations” (Land O'Lakes, Inc., priority 1999, dated 2005).

Tested on: cows
Test: Abomasal infusion of xylitol in cows, milk component concentrations (Example 1)
Format: in vivo, cow
Procedure: To determine the weight percent total solids, wet basis, in a sample, the actual weight of total solids is determined by analyzing the sample in accordance with Method #925.23 (33.2.09) of Official Methods of Analysis, Association of Official Analytical Chemists (AOAC) (16th Ed., 1995). The weight percent total solids, wet basis, is then calculated by dividing the actual weight of total solids by the actual weight of the sample. The weight percent of true protein, wet basis, for a particular sample is calculated after first determining the wet basis weight percent of total Kjeldahl nitrogen and the wet basis weight percent of non-protein nitrogen in the sample. The wet basis weight percent of total Kjeldahl nitrogen in the sample is determined using the method referenced above. The wet basis weight percent of non-protein nitrogen (NPN) in the sample is determined in accordance with Method #991.21 (33.2.12) of Official Methods of Analysis, Association of Official Analytical Chemists (AOAC) (16th Ed., 1995). The weight percent of true protein, wet basis, in the sample is then determined by subtracting the wet basis weight percent of non-protein nitrogen in the sample from the wet basis weight percent of total Kjeldahl nitrogen in the sample. To determine the weight percent lactose, wet basis, in a liquid sample, the weight of the liquid sample is first determined. The actual weight of lactose in the liquid sample may then be determined using analysis kit number 176-303, that is available from Boehringer-Mannheim of Indianapolis, Ind. in accordance with the procedural instructions included with analysis kit number 176-303. The weight percent lactose, wet basis, in the liquid sample is then calculated by dividing the actual weight of lactose in the liquid sample by the actual weight of the liquid sample. To determine the weight percent fat, wet basis, in a sample, the actual weight of fat in the sample is determined in accordance with Method #974.09 (33.7.18) of Official Methods of Analysis, Association of Official Analytical Chemists (AOAC) (16th Ed., 1995). The weight percent fat, wet basis, is then calculated by dividing the actual weight of fat in the sample by the actual weight of the sample. In this example, xylitol was abomasally infused into three different cows at a rate of 100 grams per cow per day during a 14 day test period. The rations provided to the cows during the period extending from day 0, prior to abomasal infusion of xylitol, through day 14 of the test period were the same. The only difference in feeding of the cows between day 0 and days 1-14 of the test period were that during days 1-14 the cows were abomasally infused with the dosage of 100 grams of xylitol per cow per day. The xylitol rations were mixed with water in the ratio of 150 grams of water per 100 grams of xylitol to facilitate infusion. Milk from the three cows was collected and analyzed prior to infusion (on day 0) and also was collected and analyzed on the third, seventh and fourteenth day of the test period. The results presented in Table 1 below for each milk component are averages for the milk collected from the three different cows on day 0 and a mean of the day 3, 7, and 14 concentration values, averaged over all of the test cows, for each particular milk component.

[1] = milk, mean of days 3, 7, 14 minus day 0, 100 g/cow/day abomasal
[2] = milk, mean of days 3, 7 and 14, 100 g/cow/day abomasal infusion, average of 3 cows

OC[C@@H](O)[C@H](O)[C@@H](O)CO [xylitol]
weight percent of fat, true protein, lactose, and total solids in the milk (conclusion in words) (abomasal infusion, 14 day test period): net increase | Fat, Difference (mean − day 0) [1]: +0.31 Wt % | Lactose, Difference (mean − day 0) [1]: +0.01 Wt. % | Total Solids, Difference (mean − day 0) [1]: +0.39 Wt. % | True Protein, Difference (mean − day 0) [1]: +0.10 Wt. % | Fat [2]: 3.63 Wt % | Lactose [2]: 4.66 Wt. % | Total Solids [2]: 11.82 Wt. % | True Protein [2]: 2.86 Wt. %
